Article PMC12186697, “HypoxyStat, a small-molecule form of hypoxia therapy that increases oxygen-hemoglobin affinity” (Cell, 2025)

Assays:
[1] = Safety studies in mice at optimized dose; type: in vivo; settings: optimized dose (400 mg/kg daily)
Experimental: Additionally, we used the Reaction Bio InVEST panel to test 25+ potential off-targets that have been identified by a consortium of pharmaceutical companies as high-yield candidates.
Hematocrit was determined with an iStat VetScan 1 with Zoetis Chem 8+ cartridges. Blood glucose measurements were performed using OneTouch UltraPlus glucometer. Whole blood chemistry measurements were performed on a VetScan HM5.

[2] = target: T1, hemoglobin (Hb) in human red blood cells (Homo sapiens, UniProt P69905); test: Oxy-hemoglobin dissociation curve (Hemox Analyzer), p50; type: biochemical
T1 construct: incubated for at least one hour at 37C with whole blood before Hemox analysis; endogenous in cells; host or cells: human red blood cells / whole blood
Experimental: One of the most extensively studied compounds for sickle cell anemia is GBT-440 (Voxelotor) (Figure 1B).[25] The extent of left-shifting can be assessed by determining the p50 or the partial pressure of oxygen at which half of the total Hb pool is bound to oxygen. We incubated human red blood cells with GBT-440 and observed a ~75% decrease in p50 (from ~28 to ~7 mmHg), consistent with previously reported values (Figure 1D). Experiments were performed using a HemOx analyzer that monitors oxygen saturation via Hb absorbance across a range of dissolved oxygen tensions. Upon further review of the sickle cell anemia literature, we found another compound, hereafter termed HypoxyStat (Figure 1B), which appeared to have a similar p50 as GBT-440.[26] We confirmed that HypoxyStat induced an ~82% decrease in p50 (Figure 1D).
Oxy-hemoglobin dissociation analysis was performed by the UCSF RBC laboratory using the TCS Hemox Analyzer (TCS Medical Products Company, Huntington Valley, PA). Initial pO2 is set to 160 mmHg. Hemoglobin is fully oxygenated under these conditions (HbO% =100). Replacement of air with nitrogen lowers pO2 and is measured by Clark electrode along with the change in the absorbance spectrum of hemoglobin. At a pO2 of 0 mmHg, hemoglobin is fully deoxygenated (HbO% =0). The relation between pO2 and HbO% is plotted, and the pO2 at which HbO% = 50% is defined as P50. The typical sigmoid de-oxygenation curve of normal blood with a P50 of 26–28 mmHg is used as a control for incubation conditions and to ensure proper function of the Hemox analyzer. For left-shifter comparison, the compounds were dissolved in HEPES buffered saline and then incubated for at least one hour at 37C with whole blood before Hemox analysis. A control of whole blood incubated with vehicle is also reported.

Ndufs4 KO mouse = Ndufs4 KO mouse model of Leigh syndrome (survival, body weight, temperature, behavior, neuropathology); type: in vivo
Source text: We continuously bred Ndufs4 Het x Het mice to generate KO and controls for our experiments. Ndufs4+/− and WT mice were used as controls as they are identical in all previously reported assays. Ndufs4 mice were obtained directly from Jackson labs (#027058). Pups were weaned and genotyped at ~21 d after birth. The age of mice at the time of experiments is described throughout the text. Male and female mice were used throughout studies. All cages were provided with food and water, with hydrated gel provided to newly weaned cages. Body weights were recorded at every dosing. Mice were euthanized according to guidelines at 20% drop in peak body weight. All animal studies were approved by the Institutional Animal Care & Use Committee (IACUC) Program at UCSF/Gladstone.
Mice were administered HypoxyStat at 600 mg/kg every other day or 400mg/kg daily via oral gavage. For the disease prevention experiments, KO mice that underwent daily dosing were dosed starting ~P30 for 1 week of 200mg/kg daily, followed by 400mg/kg daily to allow for gradual dose escalation. For the reversal study, KO mice were dosed once with 200mg/kg on postnatal day ~P55, followed by 400mg/kg daily. HypoxyStat was formulated as a suspension at 60 mg/mL, 40mg/ml or 80mg/ml depending on dose in 0.5%HPMC and stored at 4 °C. The formulation was determined to be stable for at least 8 weeks. Animal body weight was taken at time of dosing to determine appropriate dosing volume (10 mL/kg for every other day dosing, 5ml/kg for daily dosing). Vehicle treated mice were administered the same volume of 0.5% HPMC.
Mice were euthanized via CO2 inhalation. To perfuse the whole body, the right atrium was nicked and a needle was inserted into the left ventricle. Ice-cold PBS was slowly injected first, followed immediately by 4% PFA solution. The brain was removed, stored in 4% PFA for 24–48 h, and then washed with PBS for 5 min (3 times). The brains were placed in 70% ethanol followed by paraffin embedding. For paraffin sections, brains were sagittally sectioned at 5 μm thickness. Prior to staining, sections were deparaffinized. Antigen retrieval was performed by heating the slides to boiling temperature in 10 mM sodium citrate solution (pH 6) in a microwave, followed by heating for 10 minutes. The sections were rinsed 3 times for 5 minutes each with PBS. They were then incubated in a blocking solution containing 5% donkey serum (DS) in PBS-Tx (PBS with 0.2% Triton X-100) for 60 minutes at room temperature. After blocking, sections were incubated overnight at 4C with the primary antibody IBA1 (Genetex GTX100042, 1:250) and NeuN (Sigma, MAB377, 1:500). Afterward, the sections were rinsed 3 times for 5 minutes with PBS-Tx. Next, they were incubated with a fluorophore-conjugated secondary antibodies (Invitrogen, A21206 or A31570) for 1 hour at room temperature. Following secondary antibody incubation, the sections were rinsed 3 times for 5 minutes with PBS-Tx, and then once for 5 minutes with PBS. Histology was quantified using either the percentage of Iba1+ positive signal or blinded scoring (on the scale of 1–5).
The open field instrument (San Diego Instruments) was used to measure spontaneous locomotor activity. Mice were placed in open field chambers and allowed to acclimate for 5 min before movement tracking for 20min. Spontaneous locomotor activity was measured based on beam breaks and recorded by the instrument. Age of measurements is +/− 5 days for practical purposes without any age bias between groups.

T1 sequence (P69905 2-142 limits assumed): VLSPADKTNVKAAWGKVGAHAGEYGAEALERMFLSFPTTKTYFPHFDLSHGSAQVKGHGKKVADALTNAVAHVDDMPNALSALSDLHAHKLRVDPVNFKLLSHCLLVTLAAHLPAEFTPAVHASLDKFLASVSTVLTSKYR
T1 sequence (P68871 2-147 partner limits assumed): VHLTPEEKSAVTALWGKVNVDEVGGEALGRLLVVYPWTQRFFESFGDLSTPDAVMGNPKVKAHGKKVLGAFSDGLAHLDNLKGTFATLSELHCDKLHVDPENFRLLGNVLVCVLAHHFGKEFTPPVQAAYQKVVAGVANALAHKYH

Structure (SMILES): O=Cc1ccccc1C(=O)N1CCCC[C@H]1COc1cccc(O)c1C=O [HypoxyStat]
- classical safety parameters (body weight, organ weights, complete blood count, clinical chemistries) [1]: not adversely affected
- p50 ([2]; human red blood cells incubated 1 h with 10 mM compound, vehicle ~28 mmHg): 5.6 mmHg
- decrease in p50 ([2]; human red blood cells incubated with compound, vs vehicle): ~ 82%
- lifespan increase of Ndufs4 KO mice (Ndufs4 KO mouse; 400 mg/kg daily oral gavage from P30 (1 week at 200 mg/kg)): 3–4 ×
- tolerability of chronic dosing in control (WT or heterozygous) mice (Ndufs4 KO mouse; 600 mg/kg every other day or 400 mg/kg daily, all control mice survived): well tolerated
- lifespan increase of Ndufs4 KO mice (Ndufs4 KO mouse; 600 mg/kg every other day oral gavage from P30): 1.5–2 ×
- body temperature of Ndufs4 KO mice (Ndufs4 KO mouse; HypoxyStat from P30): restored body temperature to normal levels
- motor coordination (rotarod) and spontaneous activity (open field) of KO mice (Ndufs4 KO mouse; HypoxyStat from P30): significantly improved motor coordination and spontaneous activity
- body weight of drug-treated KO mice (Ndufs4 KO mouse; HypoxyStat from P30, comparable with inhaled hypoxia): increased body weight
- lesion severity (Iba1 staining for microglial activation) at P50 (Ndufs4 KO mouse; KO mice treated from P30, p < 0.05 vs vehicle): significant reduction in lesion severity
